Results taken from patent publication US12397056B2, “System for inducing sonoporation of a drug into cancer cells and method thereof” (Freedom Waves S.R.L, priority 2018, dated 2025).
“Also recorded” adds a separate entry of the source.

System: human pancreatic adenocarcinoma cells
Experiment: Internalization of fluoresceinamine (FA) into cancer cells (FIG. 7, CLSM)
Assay type: cell-based
Source text: This example is relative to an experiment of internalization of a fluoresceinamine (FA). […] The tested experimental condition are: • FA-NO-US-NO DRUG: administration of FA alone, without administration of any drug and without administration of ultrasounds; • FA-LI-NO-US: administration of FA and liposomal irinotecan (LI), without administration of ultrasounds; • US-DC=12%: administration of FA and liposomal irinotecan (LI), with the simultaneous administration of pLINFUs with a duty cycle of 12%; • US-PRE-DC=1%: administration of pLINFUs with a duty cycle of 1% followed by subsequent administration of FA and liposomal irinotecan (LI); and • US-DC=1%: administration of FA and liposomal irinotecan (LI), with the simultaneous administration of pLINFUs with a duty cycle of 1%.
In FIG. 7, it is graphically represented the FA Internalization (%), i.e. the percentage of FA measured after the removal of the […] liquid from the cell culture wells, i.e. the percentage of FA inside the cell. The results of the experiment of this example were also analyzed by Confocal Laser Scanning Microscopy (CLSM) after 2 hours of incubation. FIGS. 8a, 8b, 8c, 8d, 8e show the intake of the FA into human pancreatic adenocarcinoma cells, in the five aforementioned experimental conditions.
It can be explained with a greater chemical interaction between the polymeric chains of polyethylene glycol of the liposomal membrane and the FA.

With `Nc1ccc2c(c1)C(=O)OC21c2ccc(O)cc2Oc2cc(O)ccc21` [FA, fluoresceinamine] the “intake of the FA into cells (CLSM)” value (FA-LI-NO-US: FA with liposomal irinotecan, no ultrasound, FIG. 8b) was “greater fluorescence density is observed, but only at an extracellular perimembrane level”, the “intake of the FA into cells (CLSM)” value (FA-NO-US-NO DRUG: FA alone, no drug, no ultrasound, 2 hours incubation, FIG. 8a) was “not accumulated in the cells” and the “FA Internalization (%)” value (US-DC=1% compared with the other four conditions, FIG. 7) was “higher FA internalization %”. The “intake of the FA into cells (CLSM)” value (US-DC=1%: FA with liposomal irinotecan, simultaneous pLINFU duty cycle 1%, FIG. 8e) was “highest level of FA internalization”, the “intake of the FA into cells (CLSM)” value (US-DC=12%: FA with liposomal irinotecan, simultaneous pLINFU duty cycle 12%, FIG. 8c) was “the presence of FA inside the cells became evident” and the “intake of the FA into cells (CLSM)” value (US-PRE-DC=1%: pLINFU duty cycle 1% followed by FA and liposomal irinotecan, FIG. 8d) was “the presence of FA inside the cells became evident; also recorded: a certain grade of FA internalization is achieved”.
